Test results taken from US10662225B2, “Backbone cyclized inhibitory peptides of myeloid differentiation factor 88 (MyD88)” (Yissum Research Development Company of the Hebrew …, priority 2016, dated 2020).
Entries after “also recorded” stand apart in the source; their conditions may differ. Numbered stars: 1 amine (or outer) side, 2 acyl side, 3 side chain; on linkers, the order of the positions; unused ones are H or OH. Bridge positions count the residues as written; N and C are the ends. Square brackets hold non-standard residues; d marks the D form. Peptide text beside a SMILES is read from it. CO = O=C([*:1])[*:2]; Nlys = NCCCCNCC(=O)O

Test system: MOG35-55/CFA induced EAE
Experiment: MOG35-55/CFA induced EAE model of multiple sclerosis
Type: in vivo, mice
Protocol: FIG. 2. MIP treatment reduces severity of EAE. Mice were immunized with MOG35-55/CFA with PTX administration at day 0 and at 48 h. Groups of mice were treated with MIP (SEQ ID NO: 1, squares) or PBS (triangles) and mean clinical score was calculated.
FIG. 8. 4×4MyDI lowers disease in mouse EAE model. Mice were immunized with MOG35-55/CFA with PTX administration at day 0 and at 48 h. Groups of mice were treated with 4×4MyDI (squares, n=7) or PBS as control (circles, n=4) from day 0, three times a week.
FIG. 15. 4×4MyDI reduces severity of EAE. C57BL/6 mice were immunized with MOG35-55/CFA and administered pertussis toxin on day zero and after 48 h. Groups of mice were treated with 4×4MyDI at 4 mg/kg from day zero, three times a week, for a total of 9 treatments (squares, n=7) or an identical volume of PBS as control, using the same schedule of administration (circles, n=7). […] Clinical disease was scored daily. ***P<0.0001, 2-way ANOVA.
Effective peptides are examined for treatment of mice with EAE (the animal model of MS) applying several disease models. One model is described in Owens T. and Sriram S. Neurologic Clinics (1995) 13(1):51-73. In this model, C57B1 mice are immunized with the MOG protein in adjuvant and the onset of paralysis which appears 10-14 days following the induction, is evaluated daily. Two groups of animals are treated with two doses of the peptide administered orally by cannula on a daily basis, from the day of EAE-induction. One month after the disease onset, the animals are sacrificed and their brains and spinal cords are processed for histopathological analysis (performed by a blinded for the treatment arm, neuropathologist). This includes the evaluation of the number of inflammatory infiltrates and the number of cells per infiltrate, the degree of demyelination and of axonal damage. Another EAE model for MS which can be used for the compounds of the present invention and for identifying additional Myd88 inhibitors is described in Prinz et al 2006, J Clin Investigation, 116, 2 456-464, and Cohen et al 2010, J Immunol 184(1):212-21). In this model, C57B1 mice are immunized with MOG35-55 peptide ([…], SEQ ID NO: 4) emulsified in complete Freund's adjuvant (CFA) and pertussis toxin is administered systemically at the time of immunization and 48 h later. Mice are treated with the Myd88 inhibitor systemically and the mice are followed for development of ascending paralysis which typically begins on day 8-10 following immunization.
The effect of MIP administration on the clinical outcome of MOG35-55/CFA induced EAE was tested. […]
Following bioactivity characterization in vitro, the lead compound was evaluated for efficacy using the in vivo murine MOG35-55-induced EAE model of multiple sclerosis. […]

In the case of CC(C)C[C@@H]1NC(=O)[C@H](C(C)C)NC(=O)[C@H](CC(=O)O)NC(=O)[C@H](CCCNC(=N)N)NC(=O)CN(C(=O)[C@@H](N)Cc2c[nH]c3ccccc23)CCCCNC(=O)NCCCCN(CC(=O)NCC(=O)N[C@H](C(N)=O)[C@@H](C)O)C1=O [4×4MyDI] (H-W[Nlys]RDVL[Nlys]GT-NH2; linker 2-7 via CO; N-terminus assumed), the EAE disease severity (4 mg/Kg i.p. three times a week from day 0) is reported as “significant reduction in disease severity; also recorded: significantly reduced disease severity”, the EAE disease severity (4 mg/Kg i.p. three times a week from day 7) is reported as “behaved similarly to the control group” and the EAE disease severity (40 mg/Kg on day zero and day three only) is reported as “reduced disease severity even further”. The survival (4×4MyDI from day 0, three times a week, vs PBS) was “better rate of survival”.
